# Results reported in ChEMBL document CHEMBL1201862, “PubChem BioAssay data set” (2004).
# Active and inactive are the calls of the source.
# Assays:
# [1] = biological target: T1, Sentrin-specific protease 8 (Homo sapiens, UniProt Q96LD8); assay type: functional
# T1 sequence (Q96LD8 whole entry): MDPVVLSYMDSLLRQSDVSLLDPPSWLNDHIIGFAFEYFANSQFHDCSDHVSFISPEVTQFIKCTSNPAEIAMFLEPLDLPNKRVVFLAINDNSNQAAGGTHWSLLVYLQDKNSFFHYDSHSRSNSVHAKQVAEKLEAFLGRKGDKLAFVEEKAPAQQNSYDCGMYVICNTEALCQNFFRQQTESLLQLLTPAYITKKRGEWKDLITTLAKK
# [2] = biological target: T1, Sentrin-specific protease 8; assay type: functional; remark: listed apart in the source
# [3] = A549 cell cytotoxicity, dose response, cytotoxicity control, plate reader, cherry-pick, antagonist series (AID 743412); assay type: functional, cell-based
# [4] = LGR2 antagonists, dose response, cell-based, HEK293, CRE-luciferase reporter, cherry pick (AID 743342); assay type: functional
# [5] = biological target: T2, Methionyl-tRNA synthetase, putative (Trypanosoma brucei brucei, UniProt Q38C91); assay type: functional, Trypanosoma brucei brucei strain 927/4 GUTat10.1
# [6] = Counterscreen for inhibitors of Trypanosoma brucei methionyl tRNA synthetase (MetRS): Luminescence-based cell-based high throughput dose response assay to identify compounds that are cytotoxic to Jurkat human T lymphocyte cells.; assay type: functional
# [7] = biological target: T2, Methionyl-tRNA synthetase, putative; assay type: functional, Trypanosoma brucei brucei strain 927/4 GUTat10.1; remark: listed apart in the source
# Aminopeptidase N = biological target: T3, Aminopeptidase N (Plasmodium falciparum FcB1/Columbia, UniProt O96935); experiment: P. falciparum M1AAP inhibitors, biochemical, fluorogenic H-Leu-NHMec substrate, 1536-well (AID 1445); design: species or system Plasmodium falciparum 3D7, 3D7
# T3 sequence (O96935 whole entry): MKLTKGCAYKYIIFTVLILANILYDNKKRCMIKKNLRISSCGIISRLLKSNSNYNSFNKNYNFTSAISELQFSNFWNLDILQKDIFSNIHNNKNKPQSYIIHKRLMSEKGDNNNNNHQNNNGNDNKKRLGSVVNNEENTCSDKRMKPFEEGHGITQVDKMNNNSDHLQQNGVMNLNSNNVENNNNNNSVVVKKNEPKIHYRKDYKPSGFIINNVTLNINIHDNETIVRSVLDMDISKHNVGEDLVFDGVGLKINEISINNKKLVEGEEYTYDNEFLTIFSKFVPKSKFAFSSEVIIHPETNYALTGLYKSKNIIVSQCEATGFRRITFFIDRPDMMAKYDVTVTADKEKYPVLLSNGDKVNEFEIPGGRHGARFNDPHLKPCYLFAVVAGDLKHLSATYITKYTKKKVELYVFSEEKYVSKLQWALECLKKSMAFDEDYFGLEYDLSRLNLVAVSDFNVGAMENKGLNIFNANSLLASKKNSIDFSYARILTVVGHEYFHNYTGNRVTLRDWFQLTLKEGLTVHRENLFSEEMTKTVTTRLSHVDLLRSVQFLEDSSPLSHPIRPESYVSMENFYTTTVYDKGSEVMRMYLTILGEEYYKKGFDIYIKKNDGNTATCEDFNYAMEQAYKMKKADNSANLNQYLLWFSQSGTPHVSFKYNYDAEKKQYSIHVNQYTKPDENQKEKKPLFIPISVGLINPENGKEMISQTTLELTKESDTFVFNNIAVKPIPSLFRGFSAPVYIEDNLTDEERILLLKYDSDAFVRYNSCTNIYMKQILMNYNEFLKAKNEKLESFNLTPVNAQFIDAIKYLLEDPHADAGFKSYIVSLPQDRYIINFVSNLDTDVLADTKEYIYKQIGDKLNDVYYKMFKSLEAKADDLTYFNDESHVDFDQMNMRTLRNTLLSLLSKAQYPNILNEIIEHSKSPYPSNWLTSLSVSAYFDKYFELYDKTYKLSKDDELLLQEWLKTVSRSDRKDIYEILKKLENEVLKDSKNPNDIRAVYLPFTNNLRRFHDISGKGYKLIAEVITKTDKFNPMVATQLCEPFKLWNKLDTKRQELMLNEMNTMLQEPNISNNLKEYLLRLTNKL
# [8] = biological target: Endoplasmic reticulum aminopeptidase 1 (Homo sapiens, UniProt Q9NZ08); experiment: ERAP1 aminopeptidase inhibitors, dose response, biochemical, cherry-pick, set 2, plate reader (AID 743314)
# [9] = biological target: Potassium channel subfamily K member 9 (Homo sapiens, UniProt Q9NPC2); experiment: TASK3 (KCNK9) channel inhibitors, thallium flux, SAR follow-up, selectivity assay for TASK1 inhibitor project, cell-based, FluxOR thallium flux, concentration-response (AID 652211); assay type: functional;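 note: potency is for inhibitors of the channel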
# [10] = biological target: Potassium channel subfamily K member 3 (Homo sapiens, UniProt O14649); experiment: TASK1 (KCNK3) potassium channel inhibitors, SAR follow-up, CHO cells, FluxOR thallium flux (AID 652212); assay type: functional
# H9c2 = experiment: cells; assay type: functional, cell-based; details: Rattus norvegicus, H9c2, Myocardium;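 note: confirmatory concentration-response retest of ultra-high-throughput screening hits for modulation of myocardial damage; cell death induced by hydrogen peroxide oxidative stress; compound pretreatment for 60 min then peroxide exposure for 2 h; potency is for protecting the cells against peroxide damage rather than for killing them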
# [11] = biological target: T4, Probable nicotinate-nucleotide adenylyltransferase (Staphylococcus aureus (strain N315), UniProt P65502); assay type: functional, Staphylococcus aureus subsp. aureus N315;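 for IC50 Mean: confirmatory dose-response retesting of NadD inhibitor hits first found in an ultra-high-throughput screen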
# [12] = biological target: T4, Probable nicotinate-nucleotide adenylyltransferase; assay type: functional, Staphylococcus aureus subsp. aureus N315; details: read-out: IC50_Mean
# Albumin = Albumin (Bos taurus, UniProt P02769); experiment: Counterscreen for inhibitors of T-cell receptor (TCR)-CD3 interaction: Fluorescence-based biochemical high throughput dose response assay to identify inhibitors of T-cell receptor (TCR)-CD3 interaction using a TAMRA-labeled BSA probe.; assay type: functional
# [13] = MITF Orthogonal Assay: SK-MEL-5 CTG Assay Measured in Cell-Based System Using Plate Reader - 2084-02_Inhibitor_Dose_DryPowder_Activity_Set7.; assay type: functional
# [14] = MITF: Counter assay: A375 proliferation Measured in Cell-Based System Using Plate Reader - 2084-03_Inhibitor_Dose_DryPowder_Activity_Set8.; assay type: functional; details: A-375
# [15] = HEp-2 cell cytotoxicity, dose response, cytotoxicity control for RSV inhibitor project, HTS (AID 2410); assay type: functional; details: human respiratory syncytial virus
# [16] = biological target: Arf-GAP with SH3 domain, ANK repeat and PH domain-containing protein 1 (Homo sapiens, UniProt Q9ULH1); assay type: functional;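 note: biochemical fluorescence polarization dose–response screen measuring inhibition of ASAP1; ASAP1 GAP domain stimulating GTP hydrolysis by truncated human ARF1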
# NS3 = NS3 (Hepatitis C virus, UniProt A3EZJ3); experiment: HCV NS3 helicase inhibitor potency, dose response, biochemical, fluorescence polarization, ChemBridge library (AID 743264)
# [17] = biological target: T5, Scavenger receptor class B member 1 (Mus musculus, UniProt Q61009); experiment: inhibitors of SR-BI dependent HDL uptake, dose response, ldlA[mSR-BI] CHO cells, fluorescence plate reader, dry powder, set 9 (AID 623880); assay type: functional, cell-based
# [18] = biological target: T5, Scavenger receptor class B member 1; experiment: inhibitors of SR-BI-mediated HDL uptake, dose response, cell-based, ldlA[mSR-BI] CHO, DiI fluorescence, dry powder, set 10 (AID 624029); assay type: functional
# HeLa = experiment: HeLa cell cytotoxicity, dose response, cytotoxicity control for MITF activator project, CellTiter-Glo luminescence, cherry-pick samples (AID 540259); assay type: functional, cell-based; details: Homo sapiens
# Protein skinhead-1 = biological target: T6, Protein skinhead-1 (Caenorhabditis elegans, UniProt P34707); assay type: functional
# T6 sequence (P34707 whole entry): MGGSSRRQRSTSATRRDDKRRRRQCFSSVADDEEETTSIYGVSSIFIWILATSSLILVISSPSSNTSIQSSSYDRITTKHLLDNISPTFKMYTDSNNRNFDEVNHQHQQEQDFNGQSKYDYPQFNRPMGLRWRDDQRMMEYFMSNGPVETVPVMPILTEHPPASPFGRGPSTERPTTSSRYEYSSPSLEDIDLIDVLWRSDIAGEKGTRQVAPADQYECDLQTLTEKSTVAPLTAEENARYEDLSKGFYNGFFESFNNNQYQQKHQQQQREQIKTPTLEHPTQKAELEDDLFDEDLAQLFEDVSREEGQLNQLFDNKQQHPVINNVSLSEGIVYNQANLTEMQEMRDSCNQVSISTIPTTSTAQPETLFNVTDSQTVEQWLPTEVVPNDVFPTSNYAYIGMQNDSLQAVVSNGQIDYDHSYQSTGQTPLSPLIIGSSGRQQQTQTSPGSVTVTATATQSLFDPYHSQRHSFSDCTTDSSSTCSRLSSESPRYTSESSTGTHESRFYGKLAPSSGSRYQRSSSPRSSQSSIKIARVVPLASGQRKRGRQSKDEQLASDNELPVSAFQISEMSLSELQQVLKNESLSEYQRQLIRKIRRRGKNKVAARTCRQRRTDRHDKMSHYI
# [19] = biological target: T7, Oxysterols receptor LXR-beta (Homo sapiens, UniProt P55055); assay type: functional, cell-based;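 note: agonist activity at LXR measured by a cell-based luminescence readout across a dose range, run as a counterscreen for daf-12 agonists; HEK293 cells with Gal4-LXR fusion and GAL4-driven luciferase reporter; potency for activation of Gal4-LXR reporter so compounds are agonists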
# T7 sequence (P55055 whole entry): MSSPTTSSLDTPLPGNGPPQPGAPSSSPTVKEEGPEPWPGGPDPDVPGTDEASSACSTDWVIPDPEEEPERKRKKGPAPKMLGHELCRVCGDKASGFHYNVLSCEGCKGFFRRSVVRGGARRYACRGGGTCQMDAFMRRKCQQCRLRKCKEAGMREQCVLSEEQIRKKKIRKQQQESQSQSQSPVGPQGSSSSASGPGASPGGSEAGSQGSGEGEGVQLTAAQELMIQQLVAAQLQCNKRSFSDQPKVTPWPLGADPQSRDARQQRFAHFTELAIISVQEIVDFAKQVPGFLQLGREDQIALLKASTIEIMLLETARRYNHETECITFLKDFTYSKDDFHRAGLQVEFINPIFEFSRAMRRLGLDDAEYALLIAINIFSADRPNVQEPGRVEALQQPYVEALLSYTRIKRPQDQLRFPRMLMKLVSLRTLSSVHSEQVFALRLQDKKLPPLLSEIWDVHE
# [20] = BHK-21 cell cytotoxicity, cytotoxicity control for flavivirus guanylyltransferase probe project, secondary screen (AID 624078); assay type: functional
# Nonstructural protein 1 = Nonstructural protein 1 (Influenza A virus, UniProt Q194T2); assay type: functional, Influenza A virus (A/California/07/2009(H1N1))
# Protein S100-A4 = Protein S100-A4 (Homo sapiens, UniProt P26447); experiment: S100A4-myosin IIA binding inhibitor potency, dose response, biochemical, fluorescence polarization, cherry-picked hits (AID 687001); assay type: functional
# fMet-Leu-Phe receptor = fMet-Leu-Phe receptor (Homo sapiens, UniProt P21462); experiment: FPR ligands, dose response (AID 519); assay type: functional
# [21] = biological target: Fructose-bisphosphate aldolase (Mycobacterium tuberculosis, UniProt P9WQA3); experiment: Fluorescence-based biochemical high throughput dose response assay for inhibitors of the fructose-bisphosphate aldolase (FBA) of M. tuberculosis.; assay type: functional
# [22] = A Cell-Based Confirmatory Screen for Compounds that Inhibit VEEV, TC-83 (8).; assay type: functional
# T4 sequence (P65502 whole entry): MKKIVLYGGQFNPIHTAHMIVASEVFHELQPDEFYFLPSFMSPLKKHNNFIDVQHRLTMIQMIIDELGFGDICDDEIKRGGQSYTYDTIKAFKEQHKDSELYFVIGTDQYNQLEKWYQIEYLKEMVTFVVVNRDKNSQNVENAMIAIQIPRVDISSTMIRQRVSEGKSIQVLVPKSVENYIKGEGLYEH
# T5 sequence (Q61009 whole entry): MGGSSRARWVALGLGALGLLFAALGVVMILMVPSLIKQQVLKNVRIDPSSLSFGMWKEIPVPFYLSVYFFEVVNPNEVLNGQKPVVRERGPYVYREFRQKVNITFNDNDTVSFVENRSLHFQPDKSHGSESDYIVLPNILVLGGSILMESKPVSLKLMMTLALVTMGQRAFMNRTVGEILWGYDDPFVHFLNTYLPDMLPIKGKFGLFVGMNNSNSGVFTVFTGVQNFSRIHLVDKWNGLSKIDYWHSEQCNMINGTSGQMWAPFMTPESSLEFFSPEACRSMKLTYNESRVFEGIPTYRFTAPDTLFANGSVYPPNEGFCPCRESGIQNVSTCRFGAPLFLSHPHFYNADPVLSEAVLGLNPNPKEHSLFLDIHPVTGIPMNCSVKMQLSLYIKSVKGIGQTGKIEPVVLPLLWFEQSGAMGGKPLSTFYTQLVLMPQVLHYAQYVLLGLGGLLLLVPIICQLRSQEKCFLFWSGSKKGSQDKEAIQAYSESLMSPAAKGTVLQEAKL
# T2 sequence (Q38C91 whole entry): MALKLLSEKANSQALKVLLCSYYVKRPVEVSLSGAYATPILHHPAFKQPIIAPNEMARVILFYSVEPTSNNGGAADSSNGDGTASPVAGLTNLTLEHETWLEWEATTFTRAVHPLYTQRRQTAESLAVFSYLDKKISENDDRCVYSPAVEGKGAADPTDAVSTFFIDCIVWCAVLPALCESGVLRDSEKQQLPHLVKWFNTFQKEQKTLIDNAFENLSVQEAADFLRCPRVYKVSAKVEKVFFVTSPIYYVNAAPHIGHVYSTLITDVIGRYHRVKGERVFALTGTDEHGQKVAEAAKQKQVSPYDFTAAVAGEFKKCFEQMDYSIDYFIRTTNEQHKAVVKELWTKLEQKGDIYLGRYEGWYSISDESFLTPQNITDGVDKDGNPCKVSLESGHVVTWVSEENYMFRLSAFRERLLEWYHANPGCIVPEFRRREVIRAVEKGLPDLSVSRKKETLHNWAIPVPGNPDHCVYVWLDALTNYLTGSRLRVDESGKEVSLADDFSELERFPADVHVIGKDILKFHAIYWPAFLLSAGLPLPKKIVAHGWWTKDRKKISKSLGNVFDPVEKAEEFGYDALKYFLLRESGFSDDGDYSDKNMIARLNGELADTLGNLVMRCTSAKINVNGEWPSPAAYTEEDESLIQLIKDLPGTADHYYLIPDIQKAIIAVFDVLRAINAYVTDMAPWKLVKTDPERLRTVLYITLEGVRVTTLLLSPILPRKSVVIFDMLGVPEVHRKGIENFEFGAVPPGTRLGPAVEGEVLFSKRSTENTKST
# Sequence of Potassium channel subfamily K member 3 (O14649 whole entry): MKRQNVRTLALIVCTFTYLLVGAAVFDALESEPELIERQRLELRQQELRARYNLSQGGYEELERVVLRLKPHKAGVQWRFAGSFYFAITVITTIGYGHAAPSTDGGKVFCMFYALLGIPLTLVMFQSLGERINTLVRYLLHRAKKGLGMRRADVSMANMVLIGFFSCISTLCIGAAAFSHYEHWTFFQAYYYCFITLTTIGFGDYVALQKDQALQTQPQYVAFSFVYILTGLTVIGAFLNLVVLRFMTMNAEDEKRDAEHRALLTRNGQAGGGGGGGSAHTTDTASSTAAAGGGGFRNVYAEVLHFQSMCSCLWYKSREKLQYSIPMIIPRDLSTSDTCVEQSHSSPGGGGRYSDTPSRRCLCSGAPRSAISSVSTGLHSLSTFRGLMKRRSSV
# Sequence of Nonstructural protein 1 (Q194T2 whole entry): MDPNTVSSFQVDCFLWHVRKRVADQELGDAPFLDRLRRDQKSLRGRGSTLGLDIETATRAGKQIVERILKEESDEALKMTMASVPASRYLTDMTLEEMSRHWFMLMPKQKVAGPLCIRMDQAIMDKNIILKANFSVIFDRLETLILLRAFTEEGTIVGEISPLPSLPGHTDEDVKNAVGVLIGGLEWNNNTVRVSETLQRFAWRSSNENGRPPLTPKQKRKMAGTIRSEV
# Sequence of Arf-GAP with SH3 domain, ANK repeat and PH domain-containing protein 1 (Q9ULH1 whole entry, the tested form may be a part): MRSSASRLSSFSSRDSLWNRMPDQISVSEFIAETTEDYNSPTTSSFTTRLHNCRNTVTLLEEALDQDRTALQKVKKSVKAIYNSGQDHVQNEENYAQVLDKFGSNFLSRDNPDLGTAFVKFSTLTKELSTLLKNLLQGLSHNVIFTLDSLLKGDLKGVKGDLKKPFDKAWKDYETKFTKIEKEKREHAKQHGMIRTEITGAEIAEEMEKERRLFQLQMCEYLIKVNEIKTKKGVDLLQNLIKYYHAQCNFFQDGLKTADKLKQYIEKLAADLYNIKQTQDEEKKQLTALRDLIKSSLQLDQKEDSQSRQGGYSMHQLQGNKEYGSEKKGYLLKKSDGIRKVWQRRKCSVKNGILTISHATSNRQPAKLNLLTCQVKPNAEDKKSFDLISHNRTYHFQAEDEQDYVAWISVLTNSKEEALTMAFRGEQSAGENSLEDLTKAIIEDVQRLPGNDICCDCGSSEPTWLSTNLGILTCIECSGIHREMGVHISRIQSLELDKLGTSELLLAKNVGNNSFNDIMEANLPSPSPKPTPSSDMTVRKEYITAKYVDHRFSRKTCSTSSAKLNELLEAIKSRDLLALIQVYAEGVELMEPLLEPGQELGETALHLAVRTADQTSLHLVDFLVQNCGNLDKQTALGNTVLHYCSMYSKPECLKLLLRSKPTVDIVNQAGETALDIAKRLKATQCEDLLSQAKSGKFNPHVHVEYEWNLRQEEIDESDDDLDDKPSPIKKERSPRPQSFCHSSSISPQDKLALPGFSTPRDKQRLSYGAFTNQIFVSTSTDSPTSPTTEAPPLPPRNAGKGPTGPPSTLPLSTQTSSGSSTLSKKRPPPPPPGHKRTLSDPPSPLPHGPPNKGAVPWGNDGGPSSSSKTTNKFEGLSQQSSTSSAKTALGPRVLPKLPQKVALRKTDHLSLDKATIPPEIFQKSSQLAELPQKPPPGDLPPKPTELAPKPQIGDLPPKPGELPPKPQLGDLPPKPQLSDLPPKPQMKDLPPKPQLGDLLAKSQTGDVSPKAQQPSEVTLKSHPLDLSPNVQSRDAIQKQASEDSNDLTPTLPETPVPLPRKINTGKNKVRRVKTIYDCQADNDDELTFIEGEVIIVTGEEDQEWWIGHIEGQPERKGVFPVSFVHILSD
# Sequence of Potassium channel subfamily K member 9 (Q9NPC2 whole entry): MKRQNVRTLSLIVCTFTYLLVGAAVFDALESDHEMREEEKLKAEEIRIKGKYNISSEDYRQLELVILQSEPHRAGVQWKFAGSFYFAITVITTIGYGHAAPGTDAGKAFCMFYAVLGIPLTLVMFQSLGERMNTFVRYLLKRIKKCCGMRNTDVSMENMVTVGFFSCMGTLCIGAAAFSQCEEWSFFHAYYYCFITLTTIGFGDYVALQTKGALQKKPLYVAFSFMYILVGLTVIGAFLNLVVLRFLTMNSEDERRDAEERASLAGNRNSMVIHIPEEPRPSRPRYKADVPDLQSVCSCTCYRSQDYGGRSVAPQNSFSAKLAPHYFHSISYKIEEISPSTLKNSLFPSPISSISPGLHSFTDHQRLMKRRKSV
# Sequence of fMet-Leu-Phe receptor (P21462 whole entry): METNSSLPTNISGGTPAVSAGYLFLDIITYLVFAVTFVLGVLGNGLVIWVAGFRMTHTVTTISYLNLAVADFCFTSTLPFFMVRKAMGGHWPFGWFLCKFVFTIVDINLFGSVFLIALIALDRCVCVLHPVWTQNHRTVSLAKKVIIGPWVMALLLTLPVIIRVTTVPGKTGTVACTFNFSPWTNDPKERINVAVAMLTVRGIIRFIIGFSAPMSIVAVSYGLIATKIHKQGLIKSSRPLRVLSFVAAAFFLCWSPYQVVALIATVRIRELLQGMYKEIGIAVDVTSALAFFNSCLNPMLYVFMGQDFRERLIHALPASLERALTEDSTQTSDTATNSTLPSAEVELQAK
# Sequence of Fructose-bisphosphate aldolase (P9WQA3 whole entry): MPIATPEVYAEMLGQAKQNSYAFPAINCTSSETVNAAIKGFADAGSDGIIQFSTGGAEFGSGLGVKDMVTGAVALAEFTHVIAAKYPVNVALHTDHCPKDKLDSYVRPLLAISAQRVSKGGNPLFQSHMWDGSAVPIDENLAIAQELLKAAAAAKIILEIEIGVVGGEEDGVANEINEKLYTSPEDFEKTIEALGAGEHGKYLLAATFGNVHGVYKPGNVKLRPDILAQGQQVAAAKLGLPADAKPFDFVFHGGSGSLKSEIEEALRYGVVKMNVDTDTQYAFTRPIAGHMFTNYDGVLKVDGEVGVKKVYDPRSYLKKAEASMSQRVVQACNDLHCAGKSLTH
# Sequence of Albumin (P02769 whole entry): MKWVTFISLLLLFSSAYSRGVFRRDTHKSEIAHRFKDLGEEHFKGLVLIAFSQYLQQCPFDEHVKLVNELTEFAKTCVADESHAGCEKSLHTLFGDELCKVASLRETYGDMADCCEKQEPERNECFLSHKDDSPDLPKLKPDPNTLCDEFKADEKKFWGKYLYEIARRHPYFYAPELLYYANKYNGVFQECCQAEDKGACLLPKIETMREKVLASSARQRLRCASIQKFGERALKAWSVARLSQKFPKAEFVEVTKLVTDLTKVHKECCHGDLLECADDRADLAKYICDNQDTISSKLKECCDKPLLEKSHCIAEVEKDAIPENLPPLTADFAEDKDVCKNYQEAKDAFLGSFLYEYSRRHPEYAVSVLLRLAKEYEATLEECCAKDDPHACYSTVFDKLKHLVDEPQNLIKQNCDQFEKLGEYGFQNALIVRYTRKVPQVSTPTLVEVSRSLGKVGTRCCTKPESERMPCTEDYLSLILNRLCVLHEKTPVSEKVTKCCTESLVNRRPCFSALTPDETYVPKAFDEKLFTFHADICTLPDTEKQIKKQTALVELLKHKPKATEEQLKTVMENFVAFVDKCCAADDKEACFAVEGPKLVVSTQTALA
smiles,measurement,setting,value
CCCCO/C(O)=C1\C(C)=NC2(O)c3ccccc3C(=O)C12O (configuration not stated),IC50,[1],4.54 µM (active)
same,IC50,[2],10 µM (active)
C[C@H]1CCCCO[C@@H](CN(C)C(=O)Nc2ccccc2)[C@@H](C)CN([C@@H](C)CO)C(=O)c2cc(NC(=O)NC3CCCCC3)ccc2O1,AC50,[3],43.3 µM (active)
same,AC50,[4],5.33 µM (active)
COc1ccc(OCc2cc(C(=O)NCc3nc(C)cs3)no2)c(Cl)c1,IC50,[5],46.9 µM (inactive)
same,IC50,[6],83.3 µM (inactive)
same,IC50,[7],23.5 µM (inactive)
CN1CCN(Cc2c(O)ccc3cc(-c4ccccn4)c(=O)oc23)CC1,IC50,Aminopeptidase N,52.2 µM (active)
same,AC50,[8],1.88 µM (active)
COc1ccc(F)cc1C(=O)Nc1cccc(NC(=O)c2cccc(C)c2)c1,IC50,[9],0.87 µM (active)
same,IC50,[10],0.225 µM (active)
CCOC(=O)Cn1/c(=N/C(=O)c2cc(-c3cccs3)nc3ccccc23)sc2cc(S(N)(=O)=O)ccc21,IC50,H9c2,> 79 µM (inactive)
same,IC50,[11],14.2 µM (active)
same,IC50,[12],31.4 µM (active)
same,IC50,Albumin,> 94.1 µM (inactive)
O=C1C=C(Nc2ccc(F)cc2)C(=O)c2ccccc21,AC50,[13],0.595 µM (active)
same,AC50,[14],> 70 µM (inactive)
Fc1ccc(Nc2nc(-c3ccncc3)nc3ccccc23)cc1F,CC50,[15],45.1 µM (active)
same,IC50,[16],46.5 µM (inactive)
CC(=O)OC[C@@H]1CN(Cc2ccccc2)C[C@H](n2cnc3c(N(C)C(C)C)ncnc32)O1,AC50,cells,28.8 µM (active)
Cc1ccc(C)n1NC1=NC(=O)CS1,IC50,NS3,27.2 µM (inactive)
C[C@@H]1CN([C@H](C)CO)C(=O)c2cc(NC(=O)C3CCCCC3)ccc2O[C@H]1CN(C)S(=O)(=O)c1cccc(Cl)c1,AC50,[17],0.796 µM (active)
same,AC50,[18],1.22 µM (active)
C/C(=N/OCc1ccc(Br)cc1)c1ccccn1,AC50,HeLa,90.3 µM (active)
same,IC50,Protein skinhead-1,34.5 µM (active)
same,EC50,[19],> 67.6 µM (inactive)
O=C(O)CSc1cc(NS(=O)(=O)c2cccc3cccnc23)c2ccccc2c1O,CC50,[20],6.1 µM (active)
CC1N(C)c2cc(NC(=O)c3ccco3)ccc2C1(C)C (configuration not stated),IC50,Nonstructural protein 1,69.6 µM (active)
same,AC50,Protein S100-A4,1.91 µM (active)
CSc1ccccc1NS(=O)(=O)c1ccccc1,Ki,fMet-Leu-Phe receptor,> 66.7 µM (inactive)
Cc1nc2oc3c(=O)nc[nH]c3c2c2c1COC(C)(C)C2,IC50,[21],2.33 µM (active)
CCN1CCN(C)C/C1=N\c1ccc([N+](=O)[O-])cc1C(=O)Nc1ccccc1,IC50,[22],< 0.22 µM (active)
